From patent US6884796B2, “Meiosis regulating compounds” (NovoNordisk A/S, priority 1998, dated 2005)

Legend:
naked oocytes (NO) [1] = test: Agonistic oocyte assay: germinal vesicle breakdown and polar body formation in naked oocytes cultured in Hx-medium; type: cell-based, mice; conditions: 10 mikroM; for mean % GVB / mean % PB: naked oocytes (NO) cultured in vitro for 24 hours in Hx-medium; for mean Relative Effect: naked oocytes (NO), 24 hours, indexed: control = 0, FF-MAS = 100
Protocol: An agonistic oocyte assay can be performed as follows:
Oocytes were obtained from immature female mice (C57BU6J x DBA/2J F1, Bomholtgaard, Denmark) weighing 13-16 grams, that were kept under controlled temperature (20-22° C.), light (lights on 06.00-18.00) and relative humidity (50-70%). The mice received an intra-peritoneal injection of 0.2 ml gonadotropins (Gonal-F, Serono) containing 20 IU FSH and 48 hours later the animals were killed by cervical dislocation.
The ovaries were dissected out and the oocytes were isolated in Hx-medium (see below) under a stereo microscope by manual rupture of the follicles using a pair of 27 gauge needles. Spherical oocytes displaying an intact germinal vesicle (hereinafter designated GV) were divided in cumulus enclosed oocytes (hereinafter designated CEO) and naked oocytes (hereinafter designated NO) and placed in a-minimum essential medium (α-MEM without ribonucleosides, Gibco BRL, Cat. No. 22561) supplemented with 3 mg/ml bovine serum albumin (BSA, Sigma Cat. No. A-7030), 5 mg/ml human serum albumin (HSA, Statens Seruminstitute, Denmark), 0.23 mM pyruvate (Sigma, Cat. No S-8636), 2 mM glutamine (Flow Cat. No. 16-801), 100 IU/ml penicillin and 100 μg/ml streptomycin (Flow, Cat No. 16-700). This medium was supplemented with 3 mM hypoxanthine (Sigma Cat. No. H-9377) and designated Hx-medium.
The oocytes were rinsed three times in Hx-medium and oocytes of uniform size were divided into groups of CEO and NO. CEO and NO were cultured in 4-well multidishes (Nunclon, Denmark) in which each well contained 0.4 ml of Hx-medium. One control well (i.e., 35-45 oocytes cultured in identical medium with no addition of test compound) was always cultured simultaneously with 3 test wells (35-45 oocytes per well supplemented with test compound).
The oocytes were cultured in a humidified atmosphere of 5% CO2 in air for 24 hours at 37° C. By the end of the culture period, the number of oocytes with germinal vesicle (hereinafter designated GV), germinal vesicle breakdown (hereinafter designated GVB) and polar bodies (hereinafter designated PB), respectively, were counted using a stereomicroscope (Wildt, Leica MZ 12). The percentage GVB, defined as percentage of oocytes undergoing GVB per total number of oocytes in that well, was calculated as: % GVB=(number of GVB+number of PB/total number oocytes)×100.
The % PB was defined as percentage of oocytes displaying one extruded polar body per total number of oocytes in that well.
The effect of the tested compounds has been indexed against control level and 4,4-dimethyl-5α-cholesta-8,14,24-trien-3β-ol (hereinafter designated FF-MAS) where controls and FF-MAS are indexed to an effect of 0 and 100, respectively. The relative effect of the tested compound is calculated as follows: Relative effect=((test GVB %−control GVB %)/(FF-MAS GVB %−control GVB %))×100. Results

naked oocytes (NO) [2] = conditions: Byskov et al. Nature 374 (1995), 559-562; cited from earlier work

| melting point | Compound | mean % GVB (naked oocytes (NO) [1]) | mean % PB (naked oocytes (NO) [1]) | mean Relative Effect (naked oocytes (NO) [1]) | induction of meiosis in NO in vitro (naked oocytes (NO) [2]) |
| --- | --- | --- | --- | --- | --- |
| 130 to 132 °C | C[C@H](CCC(=O)OC1CCCCC1)[C@H]1CC=C2C3=C(CC[C@@]21C)[C@@]1(C)CC[C@H](O)C(C)(C)[C@@H]1CC3 |  |  |  |  |
|  | CC(C)=CCC[C@@H](C)[C@H]1CC=C2C3=C(CC[C@@]21C)[C@@]1(C)CC[C@H](O)C(C)(C)[C@@H]1CC3 [FF-MAS, 4,4-dimethyl-5α-cholesta-8,14,24-trien-3β-ol, reference compound] | 86.1% | 28.5% | 100 | induce meiosis |
|  | C[C@H](CCC(=O)Nc1ccccc1)[C@H]1CC=C2C3=C(CC[C@@]21C)[C@@]1(C)CC[C@H](O)C(C)(C)[C@@H]1CC3 [Example 10, 3β-Hydroxy-4,4-dimethyl-5α-chola-8,14-dien-24-oic acid-N-phenyl amide] | 10% | 3% | −10 |  |
|  | CC(C)C(=O)CC[C@@H](C)[C@H]1CC=C2C3=C(CC[C@@]21C)[C@@]1(C)CC[C@H](O)C(C)(C)[C@@H]1CC3 [Example 6, 3β-Hydroxy4,4-dimethyl-5α-cholesta-8,14-dien-24-one] | 88% | 11% | 110 |  |
| 114 to 115 °C | C[C@H](CCCOCc1ccccc1)[C@H]1CC=C2C3=C(CC[C@@]21C)[C@@]1(C)CC[C@H](O)C(C)(C)[C@@H]1CC3 |  |  |  |  |
| 178 to 180 °C | C[C@H](CCCNc1ccccc1)[C@H]1CC=C2C3=C(CC[C@@]21C)[C@@]1(C)CC[C@H](O)C(C)(C)[C@@H]1CC3 |  |  |  |  |
| 210 to 213 °C | C[C@H](CCC(=O)O)[C@H]1CC[C@H]2C3=CC=C4C(C)(C)[C@@H](O)CC[C@]4(C)[C@H]3CC[C@]12C |  |  |  |  |
|  | C[C@H](CC1CCCCC1)[C@H]1CC=C2C3=C(CC[C@@]21C)[C@@]1(C)CC[C@H](O)C(C)(C)[C@@H]1CC3 [Example 23, (20R), 4,20-Trimethyl-21-(cyclohexyl)-5α-pregna-8,14-dien-3β-ol] | 73.5% | 21.5% | 98 |  |
| 219 to 221 °C | CC(=O)NCCC[C@@H](C)[C@H]1CC=C2C3=C(CC[C@@]21C)[C@@]1(C)CC[C@H](O)C(C)(C)[C@@H]1CC3 |  |  |  |  |
| 171 to 176 °C | C[C@H](CCC(=O)NC(C)(C)C)[C@H]1CC=C2C3=C(CC[C@@]21C)[C@@]1(C)CC[C@H](O)C(C)(C)[C@@H]1CC3 |  |  |  |  |
|  | Cc1ccc(C[C@@H](C)[C@H]2CC=C3C4=C(CC[C@@]32C)[C@@]2(C)CC[C@H](O)C(C)(C)[C@@H]2CC4)cc1 [Example 21, (20R)-4,4,20-Trimethyl-21-(4-methylphenyl)-5α-pregna-8,14-dien-3δ-ol] | 82% | 29.5% | 98 |  |
| 188 to 190 °C | C[C@H](CCCC(C(=O)O)C(=O)O)[C@H]1CC=C2C3=C(CC[C@@]21C)[C@@]1(C)CC[C@H](O)C(C)(C)[C@@H]1CC3 |  |  |  |  |
| 183 to 185 °C | CC(=O)CC[C@@H](C)[C@H]1CC=C2C3=C(CC[C@@]21C)[C@@]1(C)CC[C@H](O)C(C)(C)[C@@H]1CC3 |  |  |  |  |
|  | C=C(C)CCC[C@@H](C)[C@H]1CC=C2C3=C(CC[C@@]21C)[C@@]1(C)CC[C@H](O)C(C)(C)C1CC3 (stereo partly drawn) [Example 33, 4,4-Dimethylcholest-8,14,25-trien-3β-ol] | 70% | 14.5% | 105 |  |
| 233 to 235 °C | C[C@H](CCC(N)=O)[C@H]1CC=C2C3=C(CC[C@@]21C)[C@@]1(C)CC[C@H](O)C(C)(C)[C@@H]1CC3 |  |  |  |  |
|  | C[C@H](CCC(=O)O)[C@H]1CC=C2C3=C(CC[C@@]21C)[C@@]1(C)CC[C@H](O)C(C)(C)[C@@H]1CC3 [Example 4, 3β-Hydroxy-4,4-dimethyl-5α-chola-8,14-dien-24-oic acid] | 10.5% | 3.5% | −10 |  |
| 156 to 157 °C | COC(=O)CC[C@@H](C)[C@H]1CC=C2C3=C(CC[C@@]21C)[C@@]1(C)CC[C@H](O)C(C)(C)[C@@H]1CC3 |  |  |  |  |
| 124 to 128 °C | COC(=O)CC[C@@H](C)[C@H]1CC[C@H]2C3=CC=C4C(C)(C)[C@@H](O)CC[C@]4(C)[C@H]3CC[C@]12C |  |  |  |  |
| 122 to 124 °C | CCOC(=O)CC[C@@H](C)[C@H]1CC=C2C3=C(CC[C@@]21C)[C@@]1(C)CC[C@H](O)C(C)(C)[C@@H]1CC3 |  |  |  |  |
| 118 to 119 °C | C[C@H](CCC(=O)OCc1ccccc1)[C@H]1CC=C2C3=C(CC[C@@]21C)[C@@]1(C)CC[C@H](O)C(C)(C)[C@@H]1CC3 |  |  |  |  |
